In patent US20230389548A1, “MIXTURES OF PYRIMIDINES AS HERBICIDAL COMPOSITIONS” (SYNGENTA CROP PROTECTION AG, priority 2020, published 2023):

Columns and labels:
Assay in all cases: Post-emergence glasshouse spray test, visual percentage phytotoxicity after 13 days
Assay type in all cases: in vivo
[1] = system: Abutilon threophrasti (ABUTH); settings: B1
Method: (§1) Seeds of Setaria faberi (SETFA), Echinochloa crus-galli (ECHCG), Digitaria sanguinalis (DIGSA), Lolium perenne (LOLPE), Alopecurus myosuroides (ALOMY), Chenopodium album (CHEAL), Ipomoea hederacea (IPOHE), Stellaria media (STEME), Abutilon threophrasti (ABUTH), Amaranthus retroflexus (AMARE) were sown in standard sterilised soil in pots. After cultivation for 8 days under controlled conditions in a glasshouse (at 24/19° C., day/night; 16 hours light; no humidity control), the plants were sprayed at 500 l/Ha with an aqueous spray solution derived from the formulation of the technical active ingredients in a small amount of acetone and a solvent and emulsifier mixture referred to as IF50 (11.12% Emulsogen EL360™+44.44% N-methylpyrrolidone+44.44% Dowanol DPM glycol ether), to create a 50 g/l solution which was then diluted using 0.2% Genapol XO80 (CAS Number: 9043-30-5) as diluent to give the desired final dose of test compound.
(§2) Where active ingredients were applied as mixtures, aqueous spray solutions were prepared as above, containing both active ingredients.
(§3) The test plants were then grown under controlled conditions in a glasshouse (at 24/18° C., day/night; 15 hours light; 50% humidity) and watered twice daily. After 13 days, the test was evaluated visually for percentage phytotoxicity to the plants (where 100=total damage to plant; 0=no damage to plant; and NC=not captured) when compared to control untreated plants. Two to four replicates were applied for each treatment in a randomised block test design.
(§4) 22., E=X+Y−(X*Y/100), where
(§5) X=average percent phytotoxicity of herbicide A when applied at a certain rate Y=average percent phytotoxicity using herbicide B when applied at a certain rate E=the expected effect of the mixture of herbicides A and B as calculated from the Colby formula.

Setaria faberi (SETFA) = settings: for SETFA percentage phytotoxicity: B1; for Observed phytotoxicity SETFA: B2.2.1
Method: as §1, §2, §3, §4, §5

[2] = system: Alopecurus myosuroides (ALOMY); settings: for ALOMY percentage phytotoxicity: B1; for Observed phytotoxicity ALOMY: B2.2.5
Method: as §1, §2, §3, §4, §5

[3] = system: Amaranthus retroflexus (AMARE); settings: for AMARE percentage phytotoxicity: B1; for Observed phytotoxicity AMARE: B2.2.6
Method: as §1, §2, §3, §4, §5

Lolium perenne (LOLPE) = settings: for LOLPE percentage phytotoxicity: B1; for Observed phytotoxicity LOLPE: B2.2.4
Method: as §1, §2, §3, §4, §5

[4] = system: Chenopodium album (CHEAL); settings: B1
Method: as §1, §2, §3, §4, §5

[5] = system: Digitaria sanguinalis (DIGSA); settings: for DIGSA percentage phytotoxicity: B1; for Observed phytotoxicity DIGSA: B2.2.3
Method: as §1, §2, §3, §4, §5

[6] = system: Ipomoea hederacea (IPOHE); settings: B1
Method: as §1, §2, §3, §4, §5

Stellaria media (STEME) = settings: B1
Method: as §1, §2, §3, §4, §5

[7] = system: Echinochloa crus-galli (ECHCG); settings: for ECHCG percentage phytotoxicity: B1; for Observed phytotoxicity ECHCG: B2.2.2
Method: as §1, §2, §3, §4, §5

CC1(C)CN(Cc2ccccc2NS(=O)(=O)C(F)(F)F)C1=O [B-IV] was tested, and the ABUTH percentage phytotoxicity ([1]; 31.25 g/ha post-emergence) was 80%, the ABUTH percentage phytotoxicity ([1]; 62.5 g/ha post-emergence) was 80% and the ABUTH percentage phytotoxicity ([1]; 125 g/ha post-emergence) was 90%. It also gave an ABUTH percentage phytotoxicity ([1]; 250 g/ha post-emergence) of 98%, an ABUTH percentage phytotoxicity ([1]; 500 g/ha post-emergence) of 85% and an ABUTH percentage phytotoxicity ([1]; 1000 g/ha post-emergence) of 85%. For the same compound, the SETFA percentage phytotoxicity (Setaria faberi (SETFA); 31.25 g/ha post-emergence) was 2%, the SETFA percentage phytotoxicity (Setaria faberi (SETFA); 62.5 g/ha post-emergence) was 0% and the SETFA percentage phytotoxicity (Setaria faberi (SETFA); 125 g/ha post-emergence) was 10%. It also gave an SETFA percentage phytotoxicity (Setaria faberi (SETFA); 250 g/ha post-emergence) of 8%, an SETFA percentage phytotoxicity (Setaria faberi (SETFA); 500 g/ha post-emergence) of 33% and an SETFA percentage phytotoxicity (Setaria faberi (SETFA); 1000 g/ha post-emergence) of 63%. For the same compound, the “Observed phytotoxicity SETFA” value (Setaria faberi (SETFA); 125 g/ha post-emergence) was 10%, the “Observed phytotoxicity SETFA” value (Setaria faberi (SETFA); 250 g/ha post-emergence) was 8% and the “Observed phytotoxicity SETFA” value (Setaria faberi (SETFA); 500 g/ha post-emergence) was 33%. The “Observed phytotoxicity SETFA” value (Setaria faberi (SETFA); 1000 g/ha post-emergence) was 63%, the ALOMY percentage phytotoxicity ([2]; 31.25 g/ha post-emergence) was 4% and the ALOMY percentage phytotoxicity ([2]; 62.5 g/ha post-emergence) was 2%. The ALOMY percentage phytotoxicity ([2]; 125 g/ha post-emergence) was 1%, the ALOMY percentage phytotoxicity ([2]; 250 g/ha post-emergence) was 3% and the ALOMY percentage phytotoxicity ([2]; 500 g/ha post-emergence) was 8%. The ALOMY percentage phytotoxicity ([2]; 1000 g/ha post-emergence) was 8%, the “Observed phytotoxicity ALOMY” value ([2]; 500 g/ha post-emergence) was 8% and the “Observed phytotoxicity ALOMY” value ([2]; 1000 g/ha post-emergence) was 8%. The AMARE percentage phytotoxicity ([3]; 31.25 g/ha post-emergence) was 0%, the AMARE percentage phytotoxicity ([3]; 62.5 g/ha post-emergence) was 15% and the AMARE percentage phytotoxicity ([3]; 125 g/ha post-emergence) was 43%. It also gave an AMARE percentage phytotoxicity ([3]; 250 g/ha post-emergence) of 43%, an AMARE percentage phytotoxicity ([3]; 500 g/ha post-emergence) of 75% and an AMARE percentage phytotoxicity ([3]; 1000 g/ha post-emergence) of 85%. The “Observed phytotoxicity AMARE” value ([3]; 31.25 g/ha post-emergence) was 0%, the “Observed phytotoxicity AMARE” value ([3]; 62.5 g/ha post-emergence) was 15% and the LOLPE percentage phytotoxicity (Lolium perenne (LOLPE); 31.25 g/ha post-emergence) was 0%. The LOLPE percentage phytotoxicity (Lolium perenne (LOLPE); 62.5 g/ha post-emergence) was 0%, the LOLPE percentage phytotoxicity (Lolium perenne (LOLPE); 125 g/ha post-emergence) was 0% and the LOLPE percentage phytotoxicity (Lolium perenne (LOLPE); 250 g/ha post-emergence) was 8%. The LOLPE percentage phytotoxicity (Lolium perenne (LOLPE); 500 g/ha post-emergence) was 38%, the LOLPE percentage phytotoxicity (Lolium perenne (LOLPE); 1000 g/ha post-emergence) was 65% and the “Observed phytotoxicity LOLPE” value (Lolium perenne (LOLPE); 62.5 g/ha post-emergence) was 0%. For the same compound, the “Observed phytotoxicity LOLPE” value (Lolium perenne (LOLPE); 125 g/ha post-emergence) was 0%, the “Observed phytotoxicity LOLPE” value (Lolium perenne (LOLPE); 250 g/ha post-emergence) was 8% and the “Observed phytotoxicity LOLPE” value (Lolium perenne (LOLPE); 500 g/ha post-emergence) was 38%. For the same compound, the “Observed phytotoxicity LOLPE” value (Lolium perenne (LOLPE); 1000 g/ha post-emergence) was 65%, the CHEAL percentage phytotoxicity ([4]; 31.25 g/ha post-emergence) was 0% and the CHEAL percentage phytotoxicity ([4]; 62.5 g/ha post-emergence) was 8%. It also gave a CHEAL percentage phytotoxicity ([4]; 125 g/ha post-emergence) of 15%, a CHEAL percentage phytotoxicity ([4]; 250 g/ha post-emergence) of 40% and a CHEAL percentage phytotoxicity ([4]; 500 g/ha post-emergence) of 25%. For the same compound, the CHEAL percentage phytotoxicity ([4]; 1000 g/ha post-emergence) was 75%, the DIGSA percentage phytotoxicity ([5]; 31.25 g/ha post-emergence) was 0% and the DIGSA percentage phytotoxicity ([5]; 62.5 g/ha post-emergence) was 3%. The DIGSA percentage phytotoxicity ([5]; 125 g/ha post-emergence) was 8%, the DIGSA percentage phytotoxicity ([5]; 250 g/ha post-emergence) was 10% and the DIGSA percentage phytotoxicity ([5]; 500 g/ha post-emergence) was 15%. For the same compound, the DIGSA percentage phytotoxicity ([5]; 1000 g/ha post-emergence) was 55%, the “Observed phytotoxicity DIGSA” value ([5]; 250 g/ha post-emergence) was 10% and the “Observed phytotoxicity DIGSA” value ([5]; 500 g/ha post-emergence) was 15%. The “Observed phytotoxicity DIGSA” value ([5]; 1000 g/ha post-emergence) was 55%, the IPOHE percentage phytotoxicity ([6]; 31.25 g/ha post-emergence) was 55% and the IPOHE percentage phytotoxicity ([6]; 62.5 g/ha post-emergence) was 80%. It also gave an IPOHE percentage phytotoxicity ([6]; 125 g/ha post-emergence) of 75%, an IPOHE percentage phytotoxicity ([6]; 250 g/ha post-emergence) of 83% and an IPOHE percentage phytotoxicity ([6]; 500 g/ha post-emergence) of 83%. For the same compound, the IPOHE percentage phytotoxicity ([6]; 1000 g/ha post-emergence) was 94%, the STEME percentage phytotoxicity (Stellaria media (STEME); 31.25 g/ha post-emergence) was 85% and the STEME percentage phytotoxicity (Stellaria media (STEME); 62.5 g/ha post-emergence) was 85%. For the same compound, the STEME percentage phytotoxicity (Stellaria media (STEME); 125 g/ha post-emergence) was 91%, the STEME percentage phytotoxicity (Stellaria media (STEME); 250 g/ha post-emergence) was 93% and the STEME percentage phytotoxicity (Stellaria media (STEME); 500 g/ha post-emergence) was 90%. For the same compound, the STEME percentage phytotoxicity (Stellaria media (STEME); 1000 g/ha post-emergence) was 93%, the ECHCG percentage phytotoxicity ([7]; 31.25 g/ha post-emergence) was 1% and the ECHCG percentage phytotoxicity ([7]; 62.5 g/ha post-emergence) was 13%. The ECHCG percentage phytotoxicity ([7]; 125 g/ha post-emergence) was 38%, the ECHCG percentage phytotoxicity ([7]; 250 g/ha post-emergence) was 60% and the ECHCG percentage phytotoxicity ([7]; 500 g/ha post-emergence) was 78%. For the same compound, the ECHCG percentage phytotoxicity ([7]; 1000 g/ha post-emergence) was 90%, the “Observed phytotoxicity ECHCG” value ([7]; 125 g/ha post-emergence) was 38% and the “Observed phytotoxicity ECHCG” value ([7]; 250 g/ha post-emergence) was 60%. The “Observed phytotoxicity ECHCG” value ([7]; 500 g/ha post-emergence) was 78%.
